According to patent US7482379B2, “Propenoyl hydrazides” (priority 2004, dated 2009):
Peptide text beside a SMILES is read from it. * marks the point of attachment. AFC = O=c1cc(C(F)(F)F)c2ccc(N*)cc2o1; Cbz = O=C(OCc1ccccc1)*

Key:
Caspase-3 = molecular target: T1, Caspase-3 (Homo sapiens, UniProt P42574); experiment: Caspase-3 progress curve inhibition assay; conditions: for k2 Caspase-3: second-order rate constant, Ac-DEVD-AMC substrate, Pipes buffer pH 7.2
T1 sequence (P42574 29-175 limits assumed): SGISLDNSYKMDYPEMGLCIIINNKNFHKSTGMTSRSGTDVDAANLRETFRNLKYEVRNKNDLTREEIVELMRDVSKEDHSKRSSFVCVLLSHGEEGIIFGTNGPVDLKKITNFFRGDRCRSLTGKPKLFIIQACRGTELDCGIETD
T1 sequence (P42574 176-277 limits assumed): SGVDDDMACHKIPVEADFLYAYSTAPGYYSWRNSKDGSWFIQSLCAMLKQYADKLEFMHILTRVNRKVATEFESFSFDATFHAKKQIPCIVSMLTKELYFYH

Caspase-10 = molecular target: T2, Caspase-10 (Homo sapiens, UniProt Q92851); experiment: Caspase-10 progress curve inhibition assay; conditions: for k2 Caspase-10: second-order rate constant, Ac-DEVD-AMC substrate, Hepes/PEG buffer pH 7.0
T2 sequence (Q92851 220-415 limits assumed): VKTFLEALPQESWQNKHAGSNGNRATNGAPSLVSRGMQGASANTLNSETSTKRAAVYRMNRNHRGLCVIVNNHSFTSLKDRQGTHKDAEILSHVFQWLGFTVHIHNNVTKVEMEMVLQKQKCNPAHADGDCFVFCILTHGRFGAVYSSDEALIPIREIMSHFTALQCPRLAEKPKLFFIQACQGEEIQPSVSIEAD
T2 sequence (Q92851 416-521 limits assumed): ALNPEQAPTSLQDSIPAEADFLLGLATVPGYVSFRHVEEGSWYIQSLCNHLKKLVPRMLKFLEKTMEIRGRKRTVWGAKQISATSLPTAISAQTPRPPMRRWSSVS
Experimental: Caspase-2, -3, -6, -7, -8, -9 and -10. Caspases-2, -3, -6, -7, -8, -9 and -10 were expressed in E. coli and purified in Guy Salvesen's laboratory at the Burnham Institute, La Jolla, Calif., according to the methods known in the art. Inhibition rates were determined by the progress curve method known in the art. This method is suitable for measuring irreversible inhibition rates with fast inhibitors, where the inhibitor, the substrate and the enzyme are incubated together and the rate of substrate hydrolysis is measured continuously. The rate of substrate hydrolysis in the presence of the inhibitor was monitored for 20 minutes. The progress curve of inhibition, where the product formation approaches an asymptote is described in the equation ln([P∞]−[P])=ln[P∞]−A[I]t where [P] and [P∞] are the product concentrations at t and t=∞ respectively, A is the apparent rate constant in the presence of the substrate. The apparent rate constants were determined from the slopes of plots of ln ([P∞]−[P]) versus time (t) in seconds as previously described, where A=slope/[I].
(§1) For competitive and irreversible inhibition, the apparent rate constant is converted to the second order rate constant k2 by taking into consideration the effect of the substrate concentration on the apparent rate constant. The second order rate constant is described as in the equation: k2=A*(1+[S]/KM)
Assay buffer is a 1:1 mixture of buffer (200 mM Hepes, 0.2% (w/v) CHAPS, PEG 20% (w/v)) and 20 mM DTT solution in H2O at pH 7.0). The enzyme was pre-activated for 10 min at 25° C. in the assay buffer.

Caspase-7 = molecular target: T3, Caspase-7 (Homo sapiens, UniProt P55210); experiment: Caspase-7 progress curve inhibition assay; conditions: for k2 Caspase-7: second-order rate constant, Ac-DEVD-AMC substrate, Pipes buffer pH 7.2
T3 sequence (P55210 24-198 limits assumed): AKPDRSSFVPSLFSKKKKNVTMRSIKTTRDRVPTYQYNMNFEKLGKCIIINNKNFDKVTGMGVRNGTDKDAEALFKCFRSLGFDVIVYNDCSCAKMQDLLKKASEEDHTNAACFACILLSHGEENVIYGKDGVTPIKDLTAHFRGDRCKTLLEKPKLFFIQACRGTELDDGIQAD
T3 sequence (P55210 207-303 limits assumed): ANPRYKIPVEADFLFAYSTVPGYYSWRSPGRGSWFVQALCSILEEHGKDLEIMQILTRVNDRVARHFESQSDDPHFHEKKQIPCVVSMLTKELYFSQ

Caspase-8 = Caspase-8 (Homo sapiens, UniProt Q14790); experiment: Caspase-8 progress curve inhibition assay; conditions: for k2 Caspase-8: second-order rate constant, Ac-DEVD-AMC substrate, Pipes buffer pH 7.2
Caspase-8, sequence (Q14790 217-374 limits assumed): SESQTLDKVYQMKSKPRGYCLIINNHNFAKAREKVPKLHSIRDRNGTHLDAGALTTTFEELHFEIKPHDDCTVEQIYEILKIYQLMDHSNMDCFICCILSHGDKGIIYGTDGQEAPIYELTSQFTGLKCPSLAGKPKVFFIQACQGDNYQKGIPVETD
Caspase-8, sequence (Q14790 385-479 limits assumed): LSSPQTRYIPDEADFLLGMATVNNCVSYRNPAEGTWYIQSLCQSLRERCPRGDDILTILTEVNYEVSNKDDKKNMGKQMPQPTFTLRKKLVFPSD

Caspase-6 = molecular target: T4, Caspase-6 (Homo sapiens, UniProt P55212); experiment: Caspase-6 progress curve inhibition assay; conditions: for k2 Caspase-6: second-order rate constant, Ac-DEVD-AMC substrate, Pipes buffer pH 7.2
T4 sequence (P55212 24-179 limits assumed): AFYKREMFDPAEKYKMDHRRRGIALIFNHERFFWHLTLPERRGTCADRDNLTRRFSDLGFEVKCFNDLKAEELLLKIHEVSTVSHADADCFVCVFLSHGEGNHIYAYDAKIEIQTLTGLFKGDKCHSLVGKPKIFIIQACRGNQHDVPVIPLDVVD
T4 sequence (P55212 194-293 limits assumed): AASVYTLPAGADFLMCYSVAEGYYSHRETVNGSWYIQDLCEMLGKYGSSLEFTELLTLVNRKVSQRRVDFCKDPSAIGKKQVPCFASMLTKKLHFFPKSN

Caspase-2 = molecular target: T5, Caspase-2 (Homo sapiens, UniProt P42575); experiment: Caspase-2 progress curve inhibition assay; conditions: for k2 Caspase-2: second-order rate constant, Cbz-VDVAD-AFC substrate, Pipes buffer pH 7.2
T5 sequence (P42575 170-333 limits assumed): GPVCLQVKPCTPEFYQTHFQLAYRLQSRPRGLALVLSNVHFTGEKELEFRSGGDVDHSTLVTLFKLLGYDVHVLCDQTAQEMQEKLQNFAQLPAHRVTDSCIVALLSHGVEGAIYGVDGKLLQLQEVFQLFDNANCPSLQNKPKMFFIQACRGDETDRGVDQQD
T5 sequence (P42575 348-452 limits assumed): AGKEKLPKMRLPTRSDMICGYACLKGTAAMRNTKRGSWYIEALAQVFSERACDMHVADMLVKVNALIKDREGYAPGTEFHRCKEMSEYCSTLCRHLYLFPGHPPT
Experimental: Inhibition rates were determined by the progress curve method known in the art. This method is suitable for measuring irreversible inhibition rates with fast inhibitors, where the inhibitor, the substrate and the enzyme are incubated together and the rate of substrate hydrolysis is measured continuously. The rate of substrate hydrolysis in the presence of the inhibitor was monitored for 20 minutes. The progress curve of inhibition, where the product formation approaches an asymptote is described in the equation ln([P∞]−[P])=ln[P∞]−A[I]t where [P] and [P∞] are the product concentrations at t and t=∞ respectively, A is the apparent rate constant in the presence of the substrate. The apparent rate constants were determined from the slopes of plots of ln ([P∞]−[P]) versus time (t) in seconds as previously described, where A=slope/[I].
as §1
The concentration of the caspase-3 stock solution was 2 nM in the assay buffer. Assay buffer is a 1:1 mixture of caspase buffer (40 mM Pipes, 200 mM NaCl, 0.2% (w/v) CHAPS, sucrose 20% (w/v)) and 20 mM DTT solution in H2O at pH 7.2. The concentration of the substrate stock solution was 2 mM in DMSO. The enzyme was pre-activated for 10 min at 37° C. in the assay buffer. […] 50 μL of 2 nM enzyme stock solution (final concentration: 1 nM) was added to the mixture after 1 min and reading started immediately for 20 min at 37° C. Inhibition experiments were repeated in duplicate and standard deviations determined.
The inhibitor stock solution concentrations varied from 5×10^−3 M to 1×10^−4 M in DMSO.

S. mansoni legumain = S. mansoni legumain (Schistosoma mansoni, UniProt P09841, N192C); experiment: S. mansoni legumain (SmAE) inhibition assay; format: biochemical; conditions: for kinact/KI: read-out: kobs/[I]
S. mansoni legumain, sequence (P09841 32-291 N192C): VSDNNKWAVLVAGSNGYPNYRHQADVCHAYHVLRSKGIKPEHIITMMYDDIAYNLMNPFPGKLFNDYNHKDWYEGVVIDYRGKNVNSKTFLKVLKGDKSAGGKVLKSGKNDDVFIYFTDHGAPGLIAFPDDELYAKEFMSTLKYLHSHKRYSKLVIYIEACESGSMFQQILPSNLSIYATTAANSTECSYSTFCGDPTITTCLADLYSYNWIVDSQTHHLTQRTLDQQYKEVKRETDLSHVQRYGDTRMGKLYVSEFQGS
Experimental: Studies with the propenoyl hydrazides using the schistosome legumain […], (Schistosoma mansoni asparaginyl endopeptidase) were also performed. […] The actual active site enzyme concentration is unknown. The lyophilized enzyme ([…]) was reconstituted in 1.5 mL 0.5 M sodium acetate, pH 4.5 containing 4 mM DTT, and left to stand at 37° C. for 3-4 hours to allow for auto-activation of the zymogen. In a black 96-well microtiter plate, 50 μL of activated enzyme was added to an equal volume of 0.1 M citrate-phosphate buffer pH 6.8 containing 4 mM DTT. Inhibitor stock solutions (20 mM) were prepared in DMSO. Serial dilutions (using water) of inhibitor were added (as 1 μL aliquots) to yield concentrations of between 2 and 0.00002 μM inhibitor. […] After incubating various inhibitor concentrations with enzyme, 100 μL of the same buffer containing 20 μM substrate (Cbz-Ala-Ala-Asn-AMC) was added to the wells and the reaction monitored at room temperature with linear kinetics up to 20 minutes. Inhibitors are tested in duplicate. A plot of the RFU/min versus the inhibitor concentration [μM] permitted calculation of an IC50 value and estimation of the kobs/[I].

Compound	k2 Caspase-3 (Caspase-3)	k2 Caspase-10 (Caspase-10)	k2 Caspase-7 (Caspase-7)	k2 Caspase-8 (Caspase-8)	k2 Caspase-6 (Caspase-6)	k2 Caspase-2 (Caspase-2)	also measured
CC(C)[C@H](NC(=O)[C@H](CCC(=O)O)NC(=O)[C@H](CC(=O)O)NC(=O)OCc1ccccc1)C(=O)NN(CC(=O)O)C(=O)/C=C/C(=O)OCc1ccccc1 (relative stereo) [Cbz-Asp-Glu-Val-AAsp-CH═CH—COOCH2Ph, N^1-trans-(3-Benzyloxycarbonylpropenoyl)-N^2—(N-benzyloxycarbonylaspartylglutamylvalyl)-N^1-carboxymethylhydrazine]	1,700,000 M^−1s^−1	28,300 M^−1s^−1	114,000 M^−1s^−1	121,000 M^−1s^−1	8,470 M^−1s^−1		
CCOC(=O)/C=C\C(=O)N(CC(=O)O)NC(=O)[C@@H](NC(=O)[C@H](CCC(=O)O)NC(=O)[C@H](CC(=O)O)NC(=O)OCc1ccccc1)C(C)C (relative stereo) [Cbz-Asp-Glu-Val-AAsp-CH═CH—COOEt (cis), N^2—(N-Benzyloxycarbonylaspartylglutamylvalyl)-N^1-carboxylmethyl-N^1-cis-(3-ethoxycarbonylpropenoyl)hydrazine]	1,060,000 M^−1s^−1	13,500 M^−1s^−1	139,000 M^−1s^−1	181,000 M^−1s^−1	11,000 M^−1s^−1	26,200 ± ^ M^−1s^−1	
CC(C)[C@H](NC(=O)[C@H](CCC(=O)O)NC(=O)[C@H](CC(=O)O)NC(=O)OCc1ccccc1)C(=O)NN(CC(=O)O)C(=O)/C=C/C(=O)c1ccccc1 (relative stereo) [Cbz-Asp-Glu-Val-AAsp-CH═CH—COPh, N^2—(N-Benzyloxycarbonylaspartylglutamylvalyl)-N^1-trans-(3-benzoylpropenoyl)-N^1-carboxymethylhydrazine]	122,000 M^−1s^−1	930 M⁻¹ s⁻¹	10,800 M^−1s^−1	9,720 M^−1s^−1	1,800 M^−1s^−1	165 M⁻¹ s⁻¹	
CCOC(=O)/C=C/C(=O)N(CC(=O)O)NC(=O)[C@@H](NC(=O)[C@H](CCC(=O)O)NC(=O)OCc1ccccc1)C(C)C (relative stereo) [Cbz-Glu-Val-AAsp-CH═CH—COOEt, N^2—(N-Benzyloxycarbonylglutamylvalyl)-N^1-carboxymethyl-N^1-trans-(3-ethoxycarbonylpropenoyl)hydrazine]	38,600 M^−1s^−1	8,940 M^−1s^−1	52,400 M^−1s^−1		3,540 M^−1s^−1	90 M⁻¹ s⁻¹	
CC[C@H](C)[C@H](NC(=O)OCc1ccccc1)C(=O)N[C@@H](CCC(=O)O)C(=O)N[C@H](C(=O)NN(CC(=O)O)C(=O)/C=C/C(=O)OCc1ccccc1)[C@@H](C)O (relative stereo) [Cbz-Ile-Glu-Thr-AAsp-CH═CH—COOCH2Ph, N^1-trans-(3-Benzyloxycarbonylpropenoyl)-N^2—(N-benzyloxycarbonylisoleucylglutamylthreonyl)-N^1-carboxylmethylhydrazine]	2,300 M^−1s^−1	15,200 M^−1s^−1	660 M⁻¹ s⁻¹	148,400 M^−1s^−1	23,350 M^−1s^−1	110 M⁻¹ s⁻¹	
CCOC(=O)/C=C/C(=O)N(CC(=O)O)NC(=O)[C@@H](NC(=O)[C@H](CCC(=O)O)NC(=O)[C@@H](NC(=O)OCc1ccccc1)[C@@H](C)CC)[C@@H](C)O (relative stereo) [Cbz-Ile-Glu-Thr-AAsp-CH═CH—COOEt, N^2—(N-Benzyloxycarbonylisoleucylglutamylthreonyl)-N^1-carboxymethyl-N^1-trans-(3-ethoxycarbonylpropenoyl)hydrazine]	6,740 M^−1s^−1	6,900 M^−1s^−1	530 M⁻¹ s⁻¹	56,500 M^−1s^−1	88,700 M^−1s^−1	300 M⁻¹ s⁻¹	
CC(=O)N[C@@H](CC(=O)O)C(=O)N[C@@H](CCC(=O)O)C(=O)N[C@H](C(=O)N[C@@H](CC(=O)O)C(=O)Nc1ccc2c(C)cc(=O)oc2c1)C(C)C [Ac-DEVD-AMC, reference compound]							Km (Caspase-3; read-out: KM with caspase-3, substrate Ac-DEVD-AMC): 9.7 µM; Km (Caspase-10; read-out: KM with caspase-10, substrate Ac-DEVD-AMC): 20.2 µM; Km (Caspase-7; read-out: KM with caspase-7, substrate Ac-DEVD-AMC): 23 µM; Km (Caspase-8; read-out: KM with caspase-8, substrate Ac-DEVD-AMC): 6.79 µM; Km (Caspase-6; read-out: KM with caspase-6, substrate Ac-DEVD-AMC): 236 µM
C[C@H](NC(=O)OCc1ccccc1)C(=O)N[C@@H](C)C(=O)NN(CC(N)=O)C(=O)/C=C/C(=O)N(C)Cc1cccc2ccccc12 [N^2—(N-Benzyloxycarbonylalanylalanyl)-N^1-carbamoylmethyl-N^1-trans-(3-(methyl-1-naphthylmethylcarbamoyl)propenoyl)hydrazine]							IC50 (S. mansoni legumain): 35 nM; kinact/KI (S. mansoni legumain): 16900 M⁻¹ s⁻¹
CC(NC(=O)OCc1ccccc1)C(=O)NC(C)C(=O)NN(CC(N)=O)C(=O)C=CC(=O)N(C)C(Cc1ccccc1)C(=O)N(C)CCc1ccccc1 (stereo not drawn) [N^2—(N-Benzyloxycarbonylalanylalanyl)-N^1-carbamoylmethyl-N^1-trans-(3-methyl-(1-methylphenethylcarbamoyl)phenylethylcarbamoylpropenoyl)hydrazine]							IC50 (S. mansoni legumain): 750 nM
C[C@H](NC(=O)OCc1ccccc1)C(=O)N[C@@H](C)C(=O)NN(CC(N)=O)C(=O)/C=C/C(=O)N(Cc1ccccc1)Cc1cccc2ccccc12 [N^2—(N-Benzyloxycarbonylalanylalanyl)-N^1-trans-(3-benzyl-1-naphthylmethylcarbamoylpropenoyl)-N^1-carbamoylmethylhydrazine]							IC50 (S. mansoni legumain): 62 nM; kinact/KI (S. mansoni legumain): 6180 M⁻¹ s⁻¹
CC(NC(=O)C(NC(=O)C(CC(=O)O)NC(=O)C(NC(=O)OCc1ccccc1)C(C)C)C(C)C)C(=O)NC(CC(=O)O)C(=O)Nc1ccc2c(C(F)(F)F)cc(=O)oc2c1 (stereo not drawn) [Z-VDVAD-AFC, reference compound] (Cbz-VDVAD-{AFC}; configuration not given here)							Km (Caspase-2; read-out: KM with caspase-2, substrate Z-VDVAD-AFC): 80.5 µM
